Where a name gives a salt, the structure may show the parent alone.
Test system: not given
Assay: not given
Settings: not given

Row | melting point [°C] | SMILES
1 | 247.6 | CCNc1n[nH]c2ccc(C3C(C#N)=C(C)NC(C)=C3C#N)cc12 [compound 121, 4-[3-(ethylamino)-1H-indazol-5-yl]-1,4-dihydro-2,6-dimethyl-3,5-pyridinedicarbonitrile]

Biological target: T1, recombinant human c-MET kinase enzyme domain (Homo sapiens, UniProt P08581)
T1 construct: Recombinant c-Met kinase domain (amino acids 960-1390); His (N); made in house; host or cells: baculovirus expression system (insect cells; SF21 is named only for the alternative format)
T1 sequence (P08581 960-1390): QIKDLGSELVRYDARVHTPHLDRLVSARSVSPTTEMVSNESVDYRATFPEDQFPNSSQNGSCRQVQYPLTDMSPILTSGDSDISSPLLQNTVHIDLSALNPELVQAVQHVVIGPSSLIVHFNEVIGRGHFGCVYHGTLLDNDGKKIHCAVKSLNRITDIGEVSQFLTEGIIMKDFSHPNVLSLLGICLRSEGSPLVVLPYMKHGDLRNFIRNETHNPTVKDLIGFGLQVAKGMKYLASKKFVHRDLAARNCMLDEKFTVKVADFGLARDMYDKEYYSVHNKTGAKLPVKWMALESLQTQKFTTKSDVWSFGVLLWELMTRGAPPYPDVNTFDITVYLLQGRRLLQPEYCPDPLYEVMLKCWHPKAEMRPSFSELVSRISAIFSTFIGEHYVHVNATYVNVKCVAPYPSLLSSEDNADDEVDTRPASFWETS
Assay: c-MET receptor tyrosine kinase Homogeneous Time Resolved Fluorescence assay (HTRF)
Format: biochemical
Settings: Biological Example 1 and/or Biological Example 2
Method in brief: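 His-tagged c-Met kinase domain (aa 960-1390, baculovirus) phosphorylated biotinylated poly-Glu-Tyr (37 nM) with 20 μM ATP in HEPES pH 7.4, Mg/Mn, DTT, 1% DMSO, 20 min at ambient temperature, EDTA-stopped. HTRF read (PT66-Eu/streptavidin-XL665, 665/620 nm ratio) after 4 h; IC50 from eight 1:3.16 dilutions.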

Row | SMILES | IC50 [nM]
2 | CCNc1n[nH]c2ccc(C3C(C#N)=C(C)NC(C)=C3C#N)cc12 [compound 121, 4-[3-(ethylamino)-1H-indazol-5-yl]-1,4-dihydro-2,6-dimethyl-3,5-pyridinedicarbonitrile] | < 100
3 | CC1=C(C#N)C(c2ccc3[nH]nc(-c4ccc(N5CCNCC5)cc4)c3c2)C(C#N)=C(C)N1 [compound 111, 1,4-dihydro-2,6-dimethyl-4-[3-[4-(1-piperazinyl)phenyl]-1H-indazol-5-yl]-3,5-pyridinedicarbonitrile] | < 100
4 | CC1=C(C#N)C(c2cccc(C(=O)Nc3ccc(CO)cn3)c2)C(C#N)=C(C)N1 [compound 72, 3-(3,5-dicyano-1,4-dihydro-2,6-dimethyl-4-pyridinyl)-N-[5-(hydroxymethyl)-2-pyridinyl]-benzamide] | 100 to 500
5 | CC1=C(C#N)C(c2ccc3[nH]nc(-c4ccncc4)c3c2)C(C#N)=C(C)N1 [94.2, 1,4-dihydro-2,6-dimethyl-4-[3-(4-pyridinyl)-1H-indazol-5-yl]-3,5-pyridinedicarbonitrile, acetic acid salt] | < 100
6 | CC1=C(C#N)C(c2cccc(NC(=O)c3ccccn3)c2)C(C#N)=C(C)N1 [compound 58, N-[3-(3,5-dicyano-1,4-dihydro-2,6-dimethyl-4-pyridinyl)phenyl]-2-pyridinecarboxamide] | 100 to 500
7 | COC(c1cccnc1)n1nc(N)c2cc(C3C(C#N)=C(C)NC(C)=C3C#N)ccc21 (stereo not drawn) [compound 110, 4-[3-amino-1-(methoxy-3-pyridinylmethyl)-1H-indazol-5-yl]-1,4-dihydro-2,6-dimethyl-3,5-pyridinedicarbonitrile] | 100 to 500
8 | CNC(=O)c1cccc(C2C(C#N)=C(C)NC(C)=C2C#N)c1 [compound 12, 3-(3,5-dicyano-2,6-dimethyl-1,4-dihydro-pyridin-4-yl)-N-methyl-benzamide, TFA salt] | 500 to 2500
9 | CC1=C(C#N)C(c2ccc3[nH]nc(Cl)c3c2)C(C#N)=C(C)N1 [compound 148, 4-(3-chloro-1H-indazol-5-yl)-1,4-dihydro-2,6-dimethyl-3,5-pyridinedicarbonitrile] | < 100
10 | CC1=C(C#N)C(c2ccc3[nH]nc(-c4ccc(CN(C)C)cc4)c3c2)C(C#N)=C(C)N1 [compound 138, 4-[3-[4-[(dimethylamino)methyl]phenyl]-1H-indazol-5-yl]-1,4-dihydro-2,6-dimethyl-3,5-pyridinedicarbonitrile] | < 100
11 | CC(=O)Nc1cccc(C2C(C#N)=C(C)NC(C)=C2C#N)c1 [compound 27, N-[3-(3,5-dicyano-1,4-dihydro-2,6-dimethyl-4-pyridinyl)phenyl]-acetamide] | 500 to 2500
12 | CC1=C(C#N)C(c2ccc3[nH]nc(-c4ccccn4)c3c2)C(C#N)=C(C)N1 [compound 88, 1,4-dihydro-2,6-dimethyl-4-[3-(2-pyridinyl)-1H-indazol-5-yl]-3,5-pyridinedicarbonitrile] | < 100
13 | CC1=C(C#N)C(c2ccc3[nH]nc(-c4cccnc4)c3c2)C(C#N)=C(C)N1 [compound 87, 1,4-dihydro-2,6-dimethyl-4-[3-(3-pyridinyl)-1H-indazol-5-yl]-3,5-pyridinedicarbonitrile] | < 100
14 | CC1=C(C#N)C(c2ccc3[nH]nc(C#CCN(C)C)c3c2)C(C#N)=C(C)N1 [compound 139, 4-[3-[3-(dimethylamino)-1-propynyl]-1H-indazol-5-yl]-1,4-dihydro-2,6-dimethyl-3,5-pyridinedicarbonitrile] | < 100
15 | COc1cccc(-c2n[nH]c3ccc(C4C(C#N)=C(C)NC(C)=C4C#N)cc23)c1 [compound 84, 1,4-dihydro-4-[3-(3-methoxyphenyl)-1H-indazol-5-yl]-2,6-dimethyl-3,5-pyridinedicarbonitrile] | 100 to 500
16 | COC(=O)c1n[nH]c2ccc(C3C(C#N)=C(C)NC(C)=C3C#N)cc12 [compound 85, 5-(3,5-dicyano-1,4-dihydro-2,6-dimethyl-4-pyridinyl)-1H-indazole-3-carboxylic acid methyl ester] | 500 to 2500
17 | CC1=C(C#N)C(c2ccc3[nH]nc(CN4CCN(c5ccncc5)CC4)c3c2)C(C#N)=C(C)N1 [compound 130, 1,4-dihydro-2,6-dimethyl-4-[3-[[4-(4-pyridinyl)-1-piperazinyl]methyl]-1H-indazol-5-yl]-3,5-pyridinedicarbonitrile] | 500 to 2500

More lines, now with the values ahead:

Row | IC50 [nM] | SMILES
18 | 100 to 500 | COC(=O)c1cccc(C2C(C#N)=C(C)NC(C3CCCN(C(C)=O)C3)=C2C#N)c1 (stereo not drawn) [compound 229, 3-[2-(1-acetyl-3-piperidinyl)-3,5-dicyano-1,4-dihydro-6-methyl-4-pyridinyl]-benzoic acid, methyl ester]
19 | < 100 | CCN1C(C)=C(C#N)C(c2ccc3[nH]nc(N)c3c2)C(C#N)=C1C [compound 294, 1-ethyl-4-(3-amino-1H-indazol-5-yl)-1,4-dihydro-2,6-dimethyl-3,5-pyridinedicarbonitrile]
20 | < 100 | CC1=C(C#N)C(c2ccc3[nH]nc(/C(C)=N/O)c3c2)C(C#N)=C(C)N1 [compound 160, 1,4-dihydro-4-[3-[(1E)-1-(hydroxyimino)ethyl]-1H-indazol-5-yl]-2,6-dimethyl-3,5-pyridinedicarbonitrile]
21 | < 100 | CC1=C(C#N)C(c2ccc3[nH]ncc3c2)C(C#N)=C(c2cccc(N)c2)N1 (stereo not drawn) [compound 252, 2-(3-aminophenyl)-1,4-dihydro-4-(1H-indazol-5-yl)-6-methyl-3,5-pyridinedicarbonitrile]
22 | < 100 | CC1=C(C#N)C(c2ccc3[nH]nc(-c4cn[nH]c4)c3c2)C(C#N)=C(C)N1 [compound 173, 1,4-dihydro-2,6-dimethyl-4-[3-(1H-pyrazol-4-yl)-1H-indazol-5-yl]-3,5-pyridinedicarbonitrile]
23 | 500 to 2500 | COC(=O)c1cccc(C2C(C#N)=C(C)N(C)C(C)=C2C#N)c1 [compound 284, 3-(3,5-dicyano-1,4-dihydro-1,2,6-trimethyl-4-pyridinyl)-benzoic acid, methyl ester]
24 | < 100 | CC1=C(C#N)C(c2ccc3[nH]nc(NCc4ccc(C(=O)N5CCC(O)C5)cc4)c3c2)C(C#N)=C(C)N1 (stereo not drawn) [compound 168, 1,4-dihydro-4-[3-[[[4-[(3-hydroxy-1-pyrrolidinyl)carbonyl]phenyl]methyl]amino]-1H-indazol-5-yl]-2,6-dimethyl-3,5-pyridinedicarbonitrile]
25 | 100 to 500 | COC(=O)c1cccc(C2C(C#N)=C(C)NC(C3CCCN(C(N)=O)C3)=C2C#N)c1 (stereo not drawn) [compound 230, 3-[2-[1-(aminocarbonyl)-3-piperidinyl]-3,5-dicyano-1,4-dihydro-6-methyl-4-pyridinyl]-benzoic acid, methyl ester]
26 | < 100 | CC1=C(C#N)C(c2ccc3[nH]ncc3c2)C(C#N)=C(c2ccc(N(C)CCO)nc2)N1 (stereo not drawn) [compound 273, 1,4-dihydro-6′-[(2-hydroxyethyl)methylamino]-4-(1H-indazol-5-yl)-6-methyl-[2,3′-bipyridine]-3,5-dicarbonitrile]
27 | < 100 | CCOC(=O)C1=C(C#N)C(c2ccc3[nH]ncc3c2)C(C#N)=C(C)N1 (stereo not drawn) [compound 268, 3,5-dicyano-1,4-dihydro-4-(1H-indazol-5-yl)-6-methyl-2-pyridinecarboxylic acid ethyl ester]
28 | < 100 | CC1=C(C#N)C(c2ccc3[nH]ncc3c2)C(C#N)=C(c2ccco2)N1 (stereo not drawn) [compound 267, 2-(2-furanyl)-1,4-dihydro-4-(1H-indazol-5-yl)-6-methyl-3,5-pyridinedicarbonitrile]
29 | < 100 | CC1=C(C#N)C(c2ccc3[nH]nc(Br)c3c2)C(C#N)=C(C)N1 [compound 151, 4-(3-bromo-1H-indazol-5-yl)-1,4-dihydro-2,6-dimethyl-3,5-pyridinedicarbonitrile]
30 | < 100 | COC(=O)c1cccc(C2C(C#N)=C(C)NC(c3ccccc3)=C2C#N)c1 (stereo not drawn) [compound 219, 3-(3,5-dicyano-1,4-dihydro-2-methyl-6-phenyl-4-pyridinyl)-benzoic acid, methyl ester]

Reference: patent publication US8198456B2, “Dihydropyridine derivatives as useful as protein kinase inhibitors” (Bayer Intellectual Property GmbH, priority 2006, dated 2012)
